Test results: ChEMBL document CHEMBL4346699 (Eur J Med Chem, 2019)

How the values were obtained:
[1] = AUC (0 to 7 hrs) in Sprague-Dawley rat at 1 mg/kg, iv by LC-MS/MS analysis; format: ADME, organism-based; parameters: dose 1 mg/kg, time < 7 hr, route intravenous; details: in vivo
[2] = Clearance in Sprague-Dawley rat at 1 mg/kg, iv by LC-MS/MS analysis; format: ADME, organism-based; details: in vivo
[3] = Volume of distribution at steady state in Sprague-Dawley rat at 1 mg/kg, iv by LC-MS/MS analysis; format: ADME, organism-based; details: in vivo, read-out: Vdss
[4] = Half life in Sprague-Dawley rat at 1 mg/kg, iv by LC-MS/MS analysis; format: ADME, organism-based; details: in vivo
[5] = AUC (0 to 7 hrs) in Sprague-Dawley rat at 5 mg/kg, po by LC-MS/MS analysis; format: ADME, organism-based; parameters: dose 5 mg/kg, time < 7 hr, route oral; details: in vivo
[6] = Tmax in Sprague-Dawley rat at 5 mg/kg, po by LC-MS/MS analysis; format: ADME, organism-based; details: in vivo
[7] = Oral bioavailability in Sprague-Dawley rat at 5 mg/kg by LC-MS/MS analysis; format: ADME, organism-based; details: in vivo
[8] = Metabolic stability in human microsomes assessed as parent compound remaining after 0 mins; format: ADME, Microsome; details: read-out: Stability
[9] = Metabolic stability in rat microsomes assessed as parent compound remaining after 0 mins; format: ADME, Microsome; details: read-out: Stability
[10] = Metabolic stability in human microsomes assessed as parent compound remaining after 5 mins; format: ADME, Microsome; details: read-out: Stability
[11] = Metabolic stability in rat microsomes assessed as parent compound remaining after 5 mins; format: ADME, Microsome; details: read-out: Stability
[12] = Metabolic stability in human microsomes assessed as parent compound remaining after 15 mins; format: ADME, Microsome; details: read-out: Stability
[13] = Metabolic stability in rat microsomes assessed as parent compound remaining after 15 mins; format: ADME, Microsome; details: read-out: Stability
[14] = Metabolic stability in human microsomes assessed as parent compound remaining after 30 mins; format: ADME, Microsome; details: read-out: Stability
[15] = Metabolic stability in rat microsomes assessed as parent compound remaining after 30 mins; format: ADME, Microsome; details: read-out: Stability
[16] = Metabolic stability in human microsomes assessed as parent compound remaining after 45 mins; format: ADME, Microsome; details: read-out: Stability
[17] = Metabolic stability in rat microsomes assessed as parent compound remaining after 45 mins; format: ADME, Microsome; details: read-out: Stability
[18] = Clearance in human; format: ADME
[19] = Half life in rat microsomes; details: in vitro
[20] = Clearance in rat microsomes; details: in vitro
[21] = biological target: Cyclin-dependent kinase 1 (Homo sapiens, UniProt P06493)
Cyclin-dependent kinase 1, sequence (P06493 whole entry): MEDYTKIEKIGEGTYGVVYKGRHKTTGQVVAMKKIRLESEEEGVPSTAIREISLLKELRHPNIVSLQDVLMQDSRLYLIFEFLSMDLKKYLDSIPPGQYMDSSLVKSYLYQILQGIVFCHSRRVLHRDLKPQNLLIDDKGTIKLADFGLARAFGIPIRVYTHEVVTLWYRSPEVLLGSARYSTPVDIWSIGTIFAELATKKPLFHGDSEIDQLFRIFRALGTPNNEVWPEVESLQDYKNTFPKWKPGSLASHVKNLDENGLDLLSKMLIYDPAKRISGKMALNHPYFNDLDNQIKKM
Description: Inhibition of CDK1 (unknown origin)

[22] = biological target: CDK2/Cyclin A2 (Homo sapiens, UniProt P24941); experiment: Inhibition of CDK2/CyclinA (unknown origin) assessed as reduction in TAMRA tagged peptide substrate phosphorylation by fluorescence polarization assay; format: protein-complex assay
[23] = Tmax in human; format: ADME
[24] = Protein binding in human plasma; format: ADME, cell-free; details: read-out: PPB (converted)
[25] = biological target: Homeodomain-interacting protein kinase 1 (Homo sapiens, UniProt Q86Z02); experiment: Inhibition of wild-type human partial length HIPK1 (M146 to I555 residues) expressed in mammalian expression system assessed as residual activity at 50 nM by Kinomescan method relative to control
Homeodomain-interacting protein kinase 1, sequence (Q86Z02 whole entry, the tested form may be a part): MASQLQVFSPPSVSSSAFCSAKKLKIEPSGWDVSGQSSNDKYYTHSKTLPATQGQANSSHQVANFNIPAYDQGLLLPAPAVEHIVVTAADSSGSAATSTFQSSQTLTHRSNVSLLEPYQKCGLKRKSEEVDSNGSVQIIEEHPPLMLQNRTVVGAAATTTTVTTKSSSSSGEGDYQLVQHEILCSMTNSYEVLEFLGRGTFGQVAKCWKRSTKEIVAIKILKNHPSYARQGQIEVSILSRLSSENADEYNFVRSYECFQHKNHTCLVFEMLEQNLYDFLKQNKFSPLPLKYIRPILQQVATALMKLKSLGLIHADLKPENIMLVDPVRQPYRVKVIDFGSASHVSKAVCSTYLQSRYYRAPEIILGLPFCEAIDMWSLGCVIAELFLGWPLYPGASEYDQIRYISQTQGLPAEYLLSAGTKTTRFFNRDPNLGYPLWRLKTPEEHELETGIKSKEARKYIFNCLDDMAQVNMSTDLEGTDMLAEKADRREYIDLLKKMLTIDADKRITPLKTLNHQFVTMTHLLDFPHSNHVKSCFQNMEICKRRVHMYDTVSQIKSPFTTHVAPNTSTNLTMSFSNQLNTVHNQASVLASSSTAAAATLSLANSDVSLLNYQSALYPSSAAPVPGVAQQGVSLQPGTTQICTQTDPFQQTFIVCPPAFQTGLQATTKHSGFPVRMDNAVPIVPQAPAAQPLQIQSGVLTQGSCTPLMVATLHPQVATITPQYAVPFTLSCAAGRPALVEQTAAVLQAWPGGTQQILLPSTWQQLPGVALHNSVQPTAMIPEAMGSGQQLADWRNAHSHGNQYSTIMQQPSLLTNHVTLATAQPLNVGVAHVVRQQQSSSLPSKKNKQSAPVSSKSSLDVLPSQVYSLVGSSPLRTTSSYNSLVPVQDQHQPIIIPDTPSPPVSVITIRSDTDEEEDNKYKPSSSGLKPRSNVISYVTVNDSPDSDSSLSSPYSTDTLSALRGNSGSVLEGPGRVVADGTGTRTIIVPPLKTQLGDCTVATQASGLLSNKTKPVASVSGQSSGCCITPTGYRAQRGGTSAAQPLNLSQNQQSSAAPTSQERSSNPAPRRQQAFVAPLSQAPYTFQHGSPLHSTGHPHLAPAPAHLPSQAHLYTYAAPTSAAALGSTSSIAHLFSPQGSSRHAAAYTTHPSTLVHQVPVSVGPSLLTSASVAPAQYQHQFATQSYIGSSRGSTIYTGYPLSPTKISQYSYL

[26] = biological target: Calcium/calmodulin-dependent protein kinase type 1 (Homo sapiens, UniProt Q14012); experiment: Inhibition of wild-type human full length CAMK1A (M1 to L370 residues) expressed in bacterial expression system assessed as residual activity at 50 nM by Kinomescan method relative to control
Calcium/calmodulin-dependent protein kinase type 1, sequence (Q14012 whole entry, the tested form may be a part): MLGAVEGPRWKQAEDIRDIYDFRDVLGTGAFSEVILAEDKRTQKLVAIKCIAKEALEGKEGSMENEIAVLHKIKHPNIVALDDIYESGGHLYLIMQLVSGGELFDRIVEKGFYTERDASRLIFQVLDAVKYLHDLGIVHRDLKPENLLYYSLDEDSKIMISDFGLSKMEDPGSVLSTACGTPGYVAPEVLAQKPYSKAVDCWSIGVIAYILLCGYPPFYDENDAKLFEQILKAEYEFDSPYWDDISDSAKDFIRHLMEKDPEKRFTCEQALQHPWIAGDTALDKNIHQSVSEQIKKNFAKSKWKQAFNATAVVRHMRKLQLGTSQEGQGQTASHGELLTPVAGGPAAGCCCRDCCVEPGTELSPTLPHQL

[27] = Oral bioavailability in human at 125 mg; format: ADME, organism-based; details: in vivo
[28] = Tmax in human at 125 mg, po; format: ADME; details: in vivo
[29] = Protein binding in human plasma at 125 mg, po; format: ADME, cell-free; details: read-out: PPB (converted)

[2H]C([2H])([2H])N(C(=O)c1cc2cnc(Nc3ccc(N4CCNCC4)cn3)nc2n1C1CCCC1)C([2H])([2H])[2H]
AUC ([1]; 7 h): 0.883 µM·h | clearance [2]: 37 mL/min/kg | Vd [3]: 8.6 L/kg | half-life [4]: 3.2 h | AUC [5]: 5.432 µM·h | Tmax [6]: 2 h | F [7]: 55%

[2H]C([2H])([2H])C([2H])([2H])N1C([2H])([2H])C([2H])([2H])N(Cc2ccc(Nc3ncc(F)c(-c4cc(F)c5nc(C)n(C(C)C)c5c4)n3)nc2)C([2H])([2H])C1([2H])[2H]
remaining at 0 h [8]: 100% | remaining at 0 h [9]: 100% | remaining at 5 min [10]: 80.3% | remaining at 5 min [11]: 92.2% | remaining at 0.25 h [12]: 47.9% | remaining at 0.25 h [13]: 86% | remaining at 0.5 h [14]: 21.3% | remaining at 0.5 h [15]: 69.9% | remaining at 0.75 h [16]: 9.86% | remaining at 0.75 h [17]: 57.6% | clearance [18]: 130 mL/min/kg | half-life [19]: 0.956 h | clearance [20]: 43.3 mL/min/kg

[2H]c1nc(Nc2ncc(F)c(-c3cc(F)c4nc(C)n(C(C)C)c4c3)n2)c([2H])c([2H])c1CN1CCN(C([2H])([2H])C([2H])([2H])[2H])CC1
remaining at 0 h [8]: 100% | remaining at 0 h [9]: 100% | remaining at 5 min [10]: 79.4% | remaining at 5 min [11]: 92.7% | remaining at 0.25 h [12]: 43.3% | remaining at 0.25 h [13]: 83% | remaining at 0.5 h [14]: 16.4% | remaining at 0.5 h [15]: 65.9% | remaining at 0.75 h [16]: 6.48% | remaining at 0.75 h [17]: 51.3% | clearance [18]: 155 mL/min/kg | half-life [19]: 0.785 h | clearance [20]: 52.7 mL/min/kg

[2H]C([2H])([2H])C([2H])([2H])N1CCN(Cc2ccc(Nc3ncc(F)c(-c4cc(F)c5nc(C)n(C(C)C)c5c4)n3)nc2)CC1
remaining at 0 h [8]: 100% | remaining at 0 h [9]: 100% | remaining at 5 min [10]: 77.7% | remaining at 5 min [11]: 93.8% | remaining at 0.25 h [12]: 42.4% | remaining at 0.25 h [13]: 83.4% | remaining at 0.5 h [14]: 16% | remaining at 0.5 h [15]: 66.9% | remaining at 0.75 h [16]: 6.21% | remaining at 0.75 h [17]: 51.3% | clearance [18]: 156 mL/min/kg | half-life [19]: 0.784 h | clearance [20]: 52.8 mL/min/kg

CN(C)C(=O)c1cc2cnc(Nc3ccc(N4CCNCC4)cc3)nc2n1C1CCCC1
IC50 [21]: > 1600 nM | IC50 [22]: > 1400 nM

CCN1CCN(Cc2ccc(Nc3ncc(F)c(-c4cc(F)c5nc(C)n(C(C)C)c5c4)n3)nc2)CC1 [ABEMACICLIB]
Tmax [23]: 4 to 24 h | fraction unbound [24]: 0.04 | Ki [25]: < 10 nM | Ki [26]: < 10 nM | remaining at 0 h [8]: 100% | remaining at 0 h [9]: 100% | remaining at 5 min [10]: 76.1% | remaining at 5 min [11]: 94.1% | remaining at 0.25 h [12]: 38.9% | remaining at 0.25 h [13]: 81% | remaining at 0.5 h [14]: 13% | remaining at 0.5 h [15]: 61.6% | remaining at 0.75 h [16]: 4.76% | remaining at 0.75 h [17]: 45.6% | clearance [18]: 172 mL/min/kg | half-life [19]: 0.658 h | clearance [20]: 62.9 mL/min/kg

CC(=O)c1c(C)c2cnc(Nc3ccc(N4CCNCC4)cn3)nc2n(C2CCCC2)c1=O [PALBOCICLIB]
bioavailability [27]: 46% | Tmax [28]: 6 to 12 h | fraction unbound [29]: 0.15

CN(C)C(=O)c1cc2cnc(Nc3ccc(N4CCNCC4)cn3)nc2n1C1CCCC1 [RIBOCICLIB]
Tmax [23]: 1 to 4 h | fraction unbound [24]: 0.3 | AUC(0-t) at 7 h ([1]; Sprague-Dawley): 1.03 µM·h | half-life [4]: 2.3 h | AUC [5]: 1.618 µM·h | Tmax [6]: 1.5 h
